Publication PMC5218480 (PLoS ONE, 2017)

System: MV-4-11 cells
Test: Gene expression microarray analysis (Affymetrix PrimeView) and GSEA
Type: cell-based, human
Set-up: RFU PODN (11730768_x_at) / Fold change /veh PODN (11730768_x_at) / RFU LINC00158 (11744669_a_at) / Fold change /veh LINC00158 (11744669_a_at) / RFU DUSP10 (11751237_a_at) / Fold change /veh DUSP10 (11751237_a_at) / RFU ID3 (11757404_x_at) / Fold change /veh ID3 (11757404_x_at) / RFU PLEKHG5 (11737974_s_at) / Fold change /veh PLEKHG5 (11737974_s_at) / RFU LRRC4B (11730491_at) / Fold change /veh LRRC4B (11730491_at) / RFU GIMAP4 (11747438_a_at) / Fold change /veh GIMAP4 (11747438_a_at) / RFU KRT8 (11758183_x_at) / Fold change /veh KRT8 (11758183_x_at) / RFU CNN1 (11734310_a_at) / Fold change /veh CNN1 (11734310_a_at) / RFU VPS37D (11726825_at) / Fold change /veh VPS37D (11726825_at) / RFU C10orf10 (11716522_x_at) / Fold change /veh C10orf10 (11716522_x_at) / RFU KIR2DL2 /// KIR2DL4 /// KIR2DL5A /// KIR2DL5B /// KIR2DS1 /// KIR2DS2 /// KIR2DS3 /// KIR2DS4 /// KIR3DL3 /// KIR3DL3 /// KIR3DS1 (11738374_at) / Fold change /veh KIR2DL2 /// KIR2DL4 /// KIR2DL5A /// KIR2DL5B /// KIR2DS1 /// KIR2DS2 /// KIR2DS3 /// KIR2DS4 /// KIR3DL3 /// KIR3DL3 /// KIR3DS1 (11738374_at) / RFU C1QL1 (11718748_at) / Fold change /veh C1QL1 (11718748_at) / RFU TMPRSS4 (11747572_a_at) / Fold change /veh TMPRSS4 (11747572_a_at) / RFU HAMP (11756126_x_at) / Fold change /veh HAMP (11756126_x_at) / RFU RNFT2 (11725882_a_at) / Fold change /veh RNFT2 (11725882_a_at) / RFU NR4A2 (11747474_a_at) / Fold change /veh NR4A2 (11747474_a_at) / RFU ABCC12 (11746883_a_at) / Fold change /veh ABCC12 (11746883_a_at) / RFU TMEM136 (11760407_x_at) / Fold change /veh TMEM136 (11760407_x_at) / RFU CLDN22 /// WWC2 (11732394_at) / Fold change /veh CLDN22 /// WWC2 (11732394_at) / RFU HLA-DPB1 (11760878_x_at) / Fold change /veh HLA-DPB1 (11760878_x_at) / RFU SPINT1 (11716480_a_at) / Fold change /veh SPINT1 (11716480_a_at) / RFU GAP43 (11754022_s_at) / Fold change /veh GAP43 (11754022_s_at) / RFU A4GNT (11735810_at) / Fold change /veh A4GNT (11735810_at) / RFU PRB3 (11715151_x_at) / Fold change /veh PRB3 (11715151_x_at) / RFU TUBB4B (11761932_at) / Fold change /veh TUBB4B (11761932_at) / RFU CAPN14 (11732068_a_at) / Fold change /veh CAPN14 (11732068_a_at) / RFU TMCC2 (11721928_a_at) / Fold change /veh TMCC2 (11721928_a_at) / RFU IRGQ (11745062_a_at) / Fold change /veh IRGQ (11745062_a_at) / RFU FAM174B (11720279_a_at) / Fold change /veh FAM174B (11720279_a_at) / RFU TMPRSS4 (11748680_a_at) / Fold change /veh TMPRSS4 (11748680_a_at) / RFU FAM212B (11763350_a_at) / Fold change /veh FAM212B (11763350_a_at) / RFU PLEKHG5 (11743358_a_at) / Fold change /veh PLEKHG5 (11743358_a_at) / RFU ZSCAN30 (11745921_a_at) / Fold change /veh ZSCAN30 (11745921_a_at) / RFU CMKLR1 (11741424_a_at) / Fold change /veh CMKLR1 (11741424_a_at) / RFU LOC101060620 /// MAPK8IP1 (11723275_at) / Fold change /veh LOC101060620 /// MAPK8IP1 (11723275_at) / RFU SPTSSB (11747773_x_at) / Fold change /veh SPTSSB (11747773_x_at) / RFU PRSS12 (11739890_at) / Fold change /veh PRSS12 (11739890_at) / RFU BIN1 (11741810_x_at) / Fold change /veh BIN1 (11741810_x_at) / RFU WNT11 (11732464_a_at) / Fold change /veh WNT11 (11732464_a_at) / RFU C10orf10 (11716521_a_at) / Fold change /veh C10orf10 (11716521_a_at) / RFU C5orf56 (11738089_at) / Fold change /veh C5orf56 (11738089_at) / RFU CYB561 (11721691_x_at) / Fold change /veh CYB561 (11721691_x_at) / RFU ANKRD19P (11752326_a_at) / Fold change /veh ANKRD19P (11752326_a_at) / RFU OR2T12 /// OR2T33 /// OR2T8 (11738714_s_at) / Fold change /veh OR2T12 /// OR2T33 /// OR2T8 (11738714_s_at) / RFU VCAN (11748164_a_at) / Fold change /veh VCAN (11748164_a_at) / RFU JSRP1 (11732532_at) / Fold change /veh JSRP1 (11732532_at) / RFU KRTAP10-11 (11738290_x_at) / Fold change /veh KRTAP10-11 (11738290_x_at) / RFU MYO3A (11730013_a_at) / Fold change /veh MYO3A (11730013_a_at) / RFU EBF3 (11725865_a_at) / Fold change /veh EBF3 (11725865_a_at) / RFU CAMK2N1 (11719241_x_at) / Fold change /veh CAMK2N1 (11719241_x_at) / RFU C5orf56 (11738088_a_at) / Fold change /veh C5orf56 (11738088_a_at) / RFU OLFML3 (11715873_a_at) / Fold change /veh OLFML3 (11715873_a_at) / RFU LOC100653217 /// NTM (11731650_a_at) / Fold change /veh LOC100653217 /// NTM (11731650_a_at) / RFU MAPK11 (11762145_a_at) / Fold change /veh MAPK11 (11762145_a_at) / RFU FIZ1 (11724087_x_at) / Fold change /veh FIZ1 (11724087_x_at) / RFU OASL (11726364_x_at) / Fold change /veh OASL (11726364_x_at) / RFU SOX15 (11748057_x_at) / Fold change /veh SOX15 (11748057_x_at) / RFU CD79A (11719716_a_at) / Fold change /veh CD79A (11719716_a_at) / RFU HIST1H1D (11736915_at) / Fold change /veh HIST1H1D (11736915_at) / RFU CASKIN2 (11723855_a_at) / Fold change /veh CASKIN2 (11723855_a_at) / RFU LOC730098 (11760151_x_at) / Fold change /veh LOC730098 (11760151_x_at) / RFU OR4N2 (11742367_at) / Fold change /veh OR4N2 (11742367_at) / RFU PRRT2 (11749266_a_at) / Fold change /veh PRRT2 (11749266_a_at) / RFU SNX32 (11753110_a_at) / Fold change /veh SNX32 (11753110_a_at) / RFU CDHR5 (11726645_a_at) / Fold change /veh CDHR5 (11726645_a_at) / RFU RCAN1 (11760418_a_at) / Fold change /veh RCAN1 (11760418_a_at) / RFU FAM167A (11723789_a_at) / Fold change /veh FAM167A (11723789_a_at) / RFU FAM26E (11764081_at) / Fold change /veh FAM26E (11764081_at) / RFU ISYNA1 (11749810_s_at) / Fold change /veh ISYNA1 (11749810_s_at) / RFU ACY1 (11761880_at) / Fold change /veh ACY1 (11761880_at) / RFU 11764098_at / Fold change /veh 11764098_at / RFU SAMD14 (11745864_x_at) / Fold change /veh SAMD14 (11745864_x_at) / RFU NPB (11741838_a_at) / Fold change /veh NPB (11741838_a_at) / RFU TMPRSS6 (11731388_a_at) / Fold change /veh TMPRSS6 (11731388_a_at) / RFU KRTAP10-2 (11738614_at) / Fold change /veh KRTAP10-2 (11738614_at) / RFU ARHGAP8 /// PRR5-ARHGAP8 (11727945_x_at) / Fold change /veh ARHGAP8 /// PRR5-ARHGAP8 (11727945_x_at) / RFU KRTAP5-7 /// NADSYN1 (11734609_at) / Fold change /veh KRTAP5-7 /// NADSYN1 (11734609_at) / RFU RASL12 (11751679_a_at) / Fold change /veh RASL12 (11751679_a_at) / RFU CDKN2B (11736163_a_at) / Fold change /veh CDKN2B (11736163_a_at) / RFU PRF1 (11729649_at) / Fold change /veh PRF1 (11729649_at) / RFU, ZNF638 /// ZNF638-IT1 / Fold change vs veh, ZNF638 /// ZNF638-IT1 / RFU, PANK3 / Fold change vs veh, PANK3 / RFU, SH3YL1 / Fold change vs veh, SH3YL1 / RFU, ZEB2 / Fold change vs veh, ZEB2 / RFU, NRIP1 / Fold change vs veh, NRIP1 / RFU, PTTG1IP / Fold change vs veh, PTTG1IP / RFU, CAPN2 / Fold change vs veh, CAPN2 / RFU, MED14 / Fold change vs veh, MED14 / RFU, SNORA58 / Fold change vs veh, SNORA58 / RFU, C1orf63 / Fold change vs veh, C1orf63 / RFU, LRRFIP1 / Fold change vs veh, LRRFIP1 / RFU, NDUFAF7 / Fold change vs veh, NDUFAF7 / RFU, SLC12A2 / Fold change vs veh, SLC12A2 / RFU, IBTK / Fold change vs veh, IBTK / RFU, ESF1 / Fold change vs veh, ESF1 / Fold change vs veh, TMEM50B / RFU, TAOK1 / Fold change vs veh, TAOK1 / RFU, ACBD3 / Fold change vs veh, ACBD3 / RFU, TMA16 / Fold change vs veh, TMA16 / RFU, RWDD3 / Fold change vs veh, RWDD3 / RFU, BCAT1 / Fold change vs veh, BCAT1 / RFU, EDEM3 / Fold change vs veh, EDEM3 / RFU, TMEM33 / Fold change vs veh, TMEM33 / RFU, WDR75 / Fold change vs veh, WDR75 / RFU, AHCTF1 / Fold change vs veh, AHCTF1 / RFU, TFRC / Fold change vs veh, TFRC / RFU, ZDHHC17 / Fold change vs veh, ZDHHC17 / RFU, NOM1 / Fold change vs veh, NOM1 / RFU, ARL8B / Fold change vs veh, ARL8B / RFU, ZBTB11 / Fold change vs veh, ZBTB11 / RFU, TAMM41 / Fold change vs veh, TAMM41 / RFU, KIAA1704 /// LOC100996395 / Fold change vs veh, KIAA1704 /// LOC100996395 / RFU, ING1 / Fold change vs veh, ING1 / RFU, TRMT61B / Fold change vs veh, TRMT61B / RFU, FUBP3 / Fold change vs veh, FUBP3 / RFU, TP53 / Fold change vs veh, TP53 / RFU, TNKS2 / Fold change vs veh, TNKS2 / RFU, ZFP14 / Fold change vs veh, ZFP14 / RFU, ACTR2 / Fold change vs veh, ACTR2 / RFU, PPP3R1 / Fold change vs veh, PPP3R1 / RFU, PIK3R1 / Fold change vs veh, PIK3R1 / RFU, HNRNPA1 / Fold change vs veh, HNRNPA1 / RFU, RNF170 / Fold change vs veh, RNF170 / RFU, ZNF28 / Fold change vs veh, ZNF28 / RFU, RNGTT / Fold change vs veh, RNGTT / RFU, OGT / Fold change vs veh, OGT / RFU, BRD1 / Fold change vs veh, BRD1 / RFU, MARS / Fold change vs veh, MARS / RFU, ZNF655 / Fold change vs veh, ZNF655 / RFU, FAHD1 / Fold change vs veh, FAHD1 / RFU, BDP1 / Fold change vs veh, BDP1 / RFU, LRRCC1 / Fold change vs veh, LRRCC1 / RFU, ARID1A / Fold change vs veh, ARID1A / RFU, ZNF146 / Fold change vs veh, ZNF146 / RFU, ZNF330 / Fold change vs veh, ZNF330 / RFU, GPN3 / Fold change vs veh, GPN3 / RFU, C9orf123 / Fold change vs veh, C9orf123 / RFU, N4BP2L2 / Fold change vs veh, N4BP2L2 / RFU, ARFIP1 / Fold change vs veh, ARFIP1 / RFU, FAM179B / Fold change vs veh, FAM179B / RFU, BCL10 / Fold change vs veh, BCL10 / RFU, UHRF1BP1L / Fold change vs veh, UHRF1BP1L / RFU, BET1 / Fold change vs veh, BET1 / RFU, CNOT2 / Fold change vs veh, CNOT2 / RFU, ZNF268 / Fold change vs veh, ZNF268 / Fold change vs veh, ZNF507 / RFU, DGCR2 / Fold change vs veh, DGCR2 / RFU, WDSUB1 / Fold change vs veh, WDSUB1 / Fold change vs veh, HSP90B1 /// MIR3652 / RFU, ADSS / Fold change vs veh, ADSS / RFU, GK / Fold change vs veh, GK / RFU, ZNF148 / Fold change vs veh, ZNF148 / RFU, TAF9 / Fold change vs veh, TAF9 / RFU, SLC1A5 / Fold change vs veh, SLC1A5 / RFU, SLMO2 / Fold change vs veh, SLMO2 / RFU, ABCC4 / Fold change vs veh, ABCC4 / RFU, LOC101060439 /// RAP1B / Fold change vs veh, LOC101060439 /// RAP1B / RFU, RFX7 / Fold change vs veh, RFX7 / RFU, GTPBP10 / Fold change vs veh, GTPBP10 / RFU, CNEP1R1 / Fold change vs veh, CNEP1R1 / RFU, BIVM-ERCC5 /// ERCC5 / Fold change vs veh, BIVM-ERCC5 /// ERCC5 / RFU, ILF3 / Fold change vs veh, ILF3 / RFU 11762660_at / Fold change /veh 11762660_at / RFU VCAN (11757783_s_at) / Fold change /veh VCAN (11757783_s_at) / RFU DDX43 (11728927_at) / Fold change /veh DDX43 (11728927_at) / RFU KRT8 (11758188_x_at) / Fold change /veh KRT8 (11758188_x_at) / RFU NKD1 (11759106_at) / Fold change /veh NKD1 (11759106_at) / RFU SRD5A1 (11742802_a_at) / Fold change /veh SRD5A1 (11742802_a_at) / RFU TPSAB1 /// TPSB2 (11721975_s_at) / Fold change /veh TPSAB1 /// TPSB2 (11721975_s_at) / RFU GSTM3 (11746129_a_at) / Fold change /veh GSTM3 (11746129_a_at) / RFU IL23R (11737362_x_at) / Fold change /veh IL23R (11737362_x_at) / RFU TMEM51 (11727254_a_at) / Fold change /veh TMEM51 (11727254_a_at) / RFU PIWIL2 (11732686_x_at) / Fold change /veh PIWIL2 (11732686_x_at) / RFU ORM1 (11744905_x_at) / Fold change /veh ORM1 (11744905_x_at) / RFU CCDC152 (11743942_at) / Fold change /veh CCDC152 (11743942_at) / RFU ECM1 (11717891_a_at) / Fold change /veh ECM1 (11717891_a_at) / RFU IL23R (11748794_a_at) / Fold change /veh IL23R (11748794_a_at) / RFU TNFAIP8L3 (11732012_x_at) / Fold change /veh TNFAIP8L3 (11732012_x_at) / RFU MBOAT4 (11741988_at) / Fold change /veh MBOAT4 (11741988_at) / RFU 11764193_at / Fold change /veh 11764193_at / RFU TMEM53 (11763286_at) / Fold change /veh TMEM53 (11763286_at) / RFU MAGEB2 (11727129_at) / Fold change /veh MAGEB2 (11727129_at) / RFU TMEM200A (11744735_a_at) / Fold change /veh TMEM200A (11744735_a_at) / RFU CCDC152 (11751479_a_at) / Fold change /veh CCDC152 (11751479_a_at) / RFU FAM211A (11726209_a_at) / Fold change /veh FAM211A (11726209_a_at) / RFU RGS16 (11746705_a_at) / Fold change /veh RGS16 (11746705_a_at) / RFU VCAN (11755009_s_at) / Fold change /veh VCAN (11755009_s_at) / RFU RHOB (11743442_s_at) / Fold change /veh RHOB (11743442_s_at) / RFU RGS16 (11720943_a_at) / Fold change /veh RGS16 (11720943_a_at) / RFU RGS16 (11720944_at) / Fold change /veh RGS16 (11720944_at) / RFU, VPS4B / Fold change vs veh, VPS4B / RFU, CREB1 / Fold change vs veh, CREB1 / RFU, DNAJC13 / Fold change vs veh, DNAJC13 / RFU, GNAQ / Fold change vs veh, GNAQ / RFU, CDK5R1 / Fold change vs veh, CDK5R1 / RFU, ZRANB3 / Fold change vs veh, ZRANB3 / RFU, CUL4A / Fold change vs veh, CUL4A / RFU, CCNY / Fold change vs veh, CCNY / RFU, UFL1 / Fold change vs veh, UFL1 / RFU, COG3 / Fold change vs veh, COG3 / RFU, DIAPH2 / Fold change vs veh, DIAPH2 / RFU, SKA2 / Fold change vs veh, SKA2 / RFU, AFF3 / Fold change vs veh, AFF3 / RFU, LMF1 / Fold change vs veh, LMF1 / RFU, IPO11 / Fold change vs veh, IPO11 / RFU, DFFB / Fold change vs veh, DFFB / RFU, FOXP1 / Fold change vs veh, FOXP1 / RFU, CARD8 / Fold change vs veh, CARD8 / RFU, STRN3 / Fold change vs veh, STRN3 / RFU, ADK / Fold change vs veh, ADK / RFU, RASSF2 / Fold change vs veh, RASSF2 / RFU, WIPF1 / Fold change vs veh, WIPF1 / RFU, LARP1B / Fold change vs veh, LARP1B / RFU, RASA1 / Fold change vs veh, RASA1 / RFU, RB1 / Fold change vs veh, RB1 / RFU, PPFIA1 / Fold change vs veh, PPFIA1 / RFU, MAT2A / Fold change vs veh, MAT2A / RFU, CCT5 / Fold change vs veh, CCT5 / RFU, WDR92 / Fold change vs veh, WDR92 / RFU, CUX1 / Fold change vs veh, CUX1 / RFU, TTC7A / Fold change vs veh, TTC7A / RFU, TMEM135 / Fold change vs veh, TMEM135 / RFU, DEPTOR / Fold change vs veh, DEPTOR / RFU, CPM / Fold change vs veh, CPM / RFU, DNAJB6 / Fold change vs veh, DNAJB6 / RFU, CACNA2D3 / Fold change vs veh, CACNA2D3 / RFU, DTX4 / Fold change vs veh, DTX4 / RFU, TFCP2 / Fold change vs veh, TFCP2 / RFU, GMCL1 /// GMCL1P1 / Fold change vs veh, GMCL1 /// GMCL1P1 / RFU, AEBP2 / Fold change vs veh, AEBP2 / RFU, SNHG1 /// SNORD22 /// SNORD25 /// SNORD26 /// SNORD27 /// SNORD28 /// SNORD29 /// SNORD31 / Fold change vs veh, SNHG1 /// SNORD22 /// SNORD25 /// SNORD26 /// SNORD27 /// SNORD28 /// SNORD29 /// SNORD31 / Fold change (Aza/veh), C12orf56 (ProbeSet 11735607_a_at) / Fold change (ACY-1035/veh), C12orf56 (ProbeSet 11735607_a_at) / Fold change (Aza/veh), FGFR1OP (ProbeSet 11751329_s_at) / Fold change (ACY-1035/veh), FGFR1OP (ProbeSet 11751329_s_at) / Fold change (Aza/veh), VPS36 (ProbeSet 11739960_a_at) / Fold change (ACY-1035/veh), VPS36 (ProbeSet 11739960_a_at) / RFU SYPL1 (11715823_x_at) / Fold change /veh SYPL1 (11715823_x_at) / RFU IGFBP7 (11715501_s_at) / Fold change /veh IGFBP7 (11715501_s_at) / RFU REEP3 (11722064_at) / Fold change /veh REEP3 (11722064_at) / RFU IGLL1 (11728026_x_at) / Fold change /veh IGLL1 (11728026_x_at): dose or concentration left out as unconfirmed
Settings: MV-4-11 cells, 48 hours

## Nc1ncn([C@@H]2O[C@H](CO)[C@@H](O)[C@H]2O)c(=O)n1 [azacitidine]
  RFU PRF1 (11729649_at): 19.15 RFU
